Laboratory results reported in publication PMC10967856, “Mechanistic Insights Revealed by YbtPQ in the Occluded State” (Biomolecules, 2024).

Assays:
YbtPQ [1] = target: T1, YbtPQ (Escherichia coli, UniProt Q1RAG2+Q1RAG3); conditions: YbtPQ-nanodisc; basal ATPase activity, no Km given
T1 construct: gene ybtP

YbtPQ [2] = target: T1, YbtPQ; conditions: trapping at 37 °C for 15 min, vanadate 0-20 mM tested (20 mM with 18 mM ATP and 54 mM MgCl2 for the cryo-EM sample); YbtPQ-nanodisc; traps as ADP-Vi

Row | SMILES | ATPase activity, malachite green phosphate release (YbtPQ [1]) | % drop in ATPase activity after vanadate trapping (YbtPQ [2])
1 | Nc1ncnc2c1ncn2[C@@H]1O[C@H](COP(=O)(O)OP(=O)(O)OP(=O)(O)O)[C@@H](O)[C@H]1O [ATP] | malachite green reacting with the released phosphate group | 
2 | [O]=[V]([OH])([OH])[OH] [vanadate] |  | ~ 90%
